Source: PubChem BioAssay AID1549 (Sanford-Burnham Center for Chemical Genomics, 2009)
The source made the active and inactive calls. How the calls were made is not given here.

molecular target: Influenza A virus M2 proton channel (A/TW/4845/1999 H1N1); assay: NMR binding screen, influenza A virus M2 proton channel, Kd (AID 1549); conditions: M2 protein

| Compound | Kd |
| --- | --- |
| O=C(O)c1cn(-c2ccccc2)nc1-c1ccncc1 | > 4 mM (inactive) |
| O=C1C2C3C=CC(O3)C2C(=O)N1c1ccccc1 (stereo unspecified) | > 4 mM (inactive) |
| Nc1cccc2cccnc12 | > 4 mM (inactive) |
| O=C(NN1C(=O)CSC1=S)c1ccccc1 | > 4 mM (inactive) |
| COC(=O)c1ccc2ncccc2c1 | > 4 mM (inactive) |
| O=c1/c(=C/c2cccs2)sc2ncnn12 | > 4 mM (inactive) |
| COc1ccc(-c2nc(C)sc2CC(=O)O)cc1 | > 4 mM (inactive) |
| C=C(C)C1Cc2c(ccc(C(=O)O)c2O)O1 (stereo unspecified) | > 4 mM (inactive) |
| O=c1c(-c2cc(O)c(O)c(O)c2)coc2cc(O)c(O)c(O)c12 | > 4 mM (inactive) |
| O=C(Nc1cnc2ccccn2c1=O)c1ccc(F)cc1 | > 4 mM (inactive) |
| O=C(NC1CCS(=O)(=O)C1)c1cccs1 (stereo unspecified) | > 4 mM (inactive) |
| Nc1nnc(-c2ccncc2)s1 | > 4 mM (inactive) |
| CC(=O)C1=C(O)C(=O)NC1c1ccccc1 (stereo unspecified) | > 4 mM (inactive) |
| OCc1nc2ccccc2s1 | > 4 mM (inactive) |
| Cc1nc(-c2ccccc2)ncc1C(=O)O | > 4 mM (inactive) |
| CCCCCCCCCCCC1=C(O)C(=O)C=C(O)C1=O | > 4 mM (inactive) |
| COc1cc([C@@H]2c3cc4c(cc3[C@H](OC(C)=O)[C@H]3COC(=O)[C@H]23)OCO4)cc(OC)c1OC | > 4 mM (inactive) |
| CC(=O)c1cccc(N=C2NC(=O)CS2)c1 | > 4 mM (inactive) |
| CCn1c2ccccc2c2nn(C)c(=N)nc21 | > 4 mM (inactive) |
| O=c1cccc2n1C[C@H]1CNCC2C1 | > 4 mM (inactive) |
| Cn1c(SCC(N)=O)nnc1-c1cccnc1 | > 4 mM (inactive) |
| O=C(O)c1ccc(CN2CCCCC2)o1 | > 4 mM (inactive) |
| C=C1C(N)CC2CC1C2(C)C (stereo unspecified) | > 4 mM (inactive) |

| Compound | Kd |
| --- | --- |
| Cc1nc2[nH]onc2c2nccc(=O)c12 | > 4 mM (inactive) |
| CC1=C(/C=C/C(C)=C/C=C/C(C)=C/C=C/C=C(C)/C=C/C=C(C)/C=C/C2=C(C)CCCC2(C)C)C(C)(C)CCC1 | > 4 mM (inactive) |
| CC(=O)NCS(=O)(=O)c1ccc(C)cc1 | > 4 mM (inactive) |
| NC(=O)C1CCN(c2ncnc(N)c2[N+](=O)[O-])CC1 | > 4 mM (inactive) |
| Cc1ccc2cc(N)ccc2n1 | > 4 mM (inactive) |
| O=C(Nc1ccc2c(c1)OCO2)c1cnn2cccnc12 | > 4 mM (inactive) |
| NC(=O)Cn1nc(-c2ccc(F)cc2)ccc1=O | > 4 mM (inactive) |
| O=C(Cc1c(F)cccc1Cl)Nc1ccncc1 | > 4 mM (inactive) |
| CCOC(=O)C1CCN(c2ccc(C#N)cc2)CC1 | > 4 mM (inactive) |
| Cc1nnsc1C(=O)N(C)c1ccccc1 | > 4 mM (inactive) |
| CC1CC[C@@]2(OC1)O[C@H]1CC3C4CC[C@@H]5C[C@@H](O)CC[C@]5(C)C4CC[C@]3(C)[C@H]1[C@@H]2C (stereo partly specified) | > 4 mM (inactive) |
| Cc1ccc(Nc2nc(N)nc(CC#N)n2)cc1 | > 4 mM (inactive) |
| COc1cc2cc[n+]3cc4c(OC)c(OC)ccc4cc3c2cc1OC | > 4 mM (inactive) |
| c1cnc(N2CCSCC2)nc1 | > 4 mM (inactive) |
| NCCN=C1NS(=O)(=O)c2ccccc21 | > 4 mM (inactive) |
| O=C(NC(=S)NCCO)c1ccccc1 | > 4 mM (inactive) |
| O=C(O)Cc1nc(-c2ccncc2)n[nH]1 | > 4 mM (inactive) |
| CCC(C)C(=O)O[C@H]1[C@H](O)C2C(CN3CC(C)CCC3[C@@]2(C)O)C2C[C@]34O[C@]5(O)C(OC(=O)C(C)(O)CC)CC[C@@]3(C)C5C(OC(C)=O)[C@@H](OC(C)=O)C4[C@@]21O (stereo partly specified) | > 4 mM (inactive) |
| Cn1ncc(CO)c1-c1ccccc1 | > 4 mM (inactive) |
| O=C(CC1NCCNC1=O)Nc1ccccc1 (stereo unspecified) | > 4 mM (inactive) |
| O=C(c1ccco1)N1CCn2c1nc1ccccc12 | > 4 mM (inactive) |
| CC(=O)Nc1ccc(C(=O)NC2CCSC2=O)cc1 (stereo unspecified) | > 4 mM (inactive) |
| CC(=O)Nc1ccccc1-c1ccccc1NC(C)=O | > 4 mM (inactive) |
